Reference: the NIST ThermoML archive (doi:10.1007/s10765-009-0584-4)
“And” between values parts separate entries of the source, which are not always exact repeats. Equal values may be shown once.

Details: 101.33 kPa, Liquid; for electrical conductivity: Parallel Plate Conductive Cell; for kinematic viscosity: Capillary tube (Ostwald / Ubbelohde) method

CCCCCC[n+]1ccn(C)c1.O=S(=O)([N-]S(=O)(=O)C(F)(F)F)C(F)(F)F
Details | electrical conductivity | kinematic viscosity [m2/s]
278.15 K | 0.0783 S/m | –
283.15 K | 0.104 S/m | –
288.15 K | 0.136 S/m | –
293.15 K | 0.173 S/m | –
298.15 K | 0.217 S/m and 0.218 S/m | 5.06e-05
303.15 K | 0.268 S/m | 4.04e-05
308.15 K | 0.326 S/m | –
313.15 K | 0.391 S/m | –
313.16 K | – | 2.7e-05
323.15 K | 0.543 S/m | 1.9e-05
333.15 K | 0.726 S/m | 1.39e-05
343.15 K | – | 1.06e-05
